Tests used:
[1] = human, serum, 4383 h
[2] = human
[3] = human; remark: listed apart in the source
[4] = Highest frequency of moderate liver toxicity observed during clinical trials, expressed as a percentage. [column '% BIOL' in source]; conditions: human
[5] = human, serum
[6] = human; remark: listed apart in the source
[7] = human; remark: listed apart in the source
[8] = human, serum; remark: listed apart in the source
[9] = Presence of at least one case with successful reintroduction. [column 'REINT' in source]; conditions: human
[10] = human; remark: listed apart in the source
[11] = human; remark: listed apart in the source
[12] = human; remark: listed apart in the source
[13] = Proposed mechanism(s) of liver damage. [column 'MEC' in source]; conditions: human
[14] = human; remark: listed apart in the source
[15] = Comments (NB not yet translated). [column 'COMMENTAIRES' in source]; conditions: human
[16] = Highest frequency of acute liver toxicity observed during clinical trials, expressed as a percentage. [column '% AIGUE' in source]; conditions: human
[17] = Times to onset, minimal and maximal, observed in the indexed observations. [column 'DELAI' in source]; conditions: human
[18] = human; remark: listed apart in the source
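Wherever Hepatotoxicity (association with vascular disease) is given: count of indexed literature references reporting vascular liver injury in humans, e.g. peliosis hepatitis, hepatic veno-occlusive disease or Budd-Chiari syndrome.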
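Wherever Hepatotoxicity (benign tumour) is given: value is a count of indexed literature references citing a benign tumour confirmed by histopathology.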
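Wherever Hepatotoxicity (choleostasis) is given: human cholestatic liver injury, shown by histopathology or by peak ALT or AST elevation over alkaline phosphatase ratio below 2, value counts indexed literature reports.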
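Wherever Hepatotoxicity (chronic liver disease) is given: chronic liver injury confirmed by histopathology or persistently raised serum aminotransferase activity beyond 6 months, value given as the count of indexed literature references.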
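Wherever Hepatotoxicity (cirrhosis) is given: value is a count of indexed literature references reporting cirrhosis confirmed by histopathology.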
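Wherever Hepatotoxicity (cytolytic) is given: human cytolytic liver injury, shown by histopathology or by a ratio above 5 of peak ALT or AST elevation to alkaline phosphatase elevation, value counts indexed references.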
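Wherever Hepatotoxicity (granulomatous hepatitis) is given: value is a count of indexed literature references reporting granulomatous liver disease confirmed by histopathology.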
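Wherever Hepatotoxicity (malignant tumour) is given: malignant tumour confirmed by histopathology, value gives the count of indexed literature references reporting it.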
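Wherever Hepatotoxicity (severe hepatitis) is given: human clinical data: severe hepatitis, meaning potentially life-threatening liver failure or clinically observed cases, the value counts how many indexed literature references report it.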
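Wherever Hepatotoxicity (steatosis) is given: steatosis confirmed by histopathology, value is the count of indexed references.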

CO[C@H]1/C=C/O[C@@]2(C)Oc3c(C)c(O)c4c(O)c(cc(O)c4c3C2=O)NC(=O)/C(C)=C\C=C\[C@H](C)[C@H](O)[C@@H](C)[C@@H](O)[C@@H](C)[C@H](OC(C)=O)[C@@H]1C [RIFAMYCIN]
Hepatotoxicity (chronic liver disease) [1]: 0 | Hepatotoxicity (choleostasis) [2]: 2 | Hepatotoxicity (granulomatous hepatitis) [3]: 0 | Hepatotoxicity (moderate) [4]: 10% | Hepatotoxicity (moderate) [5]: 5 | Hepatotoxicity (severe hepatitis) [6]: 0 | Hepatotoxicity (association with vascular disease) [7]: 0 | Hepatotoxicity (acute) [8]: 3 | Hepatotoxicity (successful reintroduction) [9]: yes | Hepatotoxicity (malignant tumour) [10]: 0 | Hepatotoxicity (steatosis) [11]: 0 | Hepatotoxicity (cirrhosis) [12]: 0 | Hepatotoxicity (mechanism) [13]: Allergic | Hepatotoxicity (cytolytic) [14]: 2 | Hepatotoxicity (comment) [15]: CHOLANGITE I/ISONIAZIDE | Hepatotoxicity (acute) [16]: 2.3% | Hepatotoxicity (time to onset) [17]: 6 hours - 13 days | Hepatotoxicity (benign tumour) [18]: 0

CCC1(c2ccccc2)C(=O)NC(=O)NC1=O [PHENOBARBITAL]
Hepatotoxicity (chronic liver disease) [1]: 1 | Hepatotoxicity (choleostasis) [2]: 4 | Hepatotoxicity (granulomatous hepatitis) [3]: 1 | Hepatotoxicity (moderate) [4]: 0% | Hepatotoxicity (moderate) [5]: 8 | Hepatotoxicity (severe hepatitis) [6]: 10 | Hepatotoxicity (association with vascular disease) [7]: 0 | Hepatotoxicity (acute) [8]: 30 | Hepatotoxicity (successful reintroduction) [9]: yes | Hepatotoxicity (malignant tumour) [10]: 0 | Hepatotoxicity (steatosis) [11]: 1 | Hepatotoxicity (cirrhosis) [12]: 0 | Hepatotoxicity (mechanism) [13]: Allergic | Hepatotoxicity (cytolytic) [14]: 23 | Hepatotoxicity (comment) [15]: I/PARACETAMOL AC_ANTI-N/-MF CHOLANGITE | Hepatotoxicity (acute) [16]: 0% | Hepatotoxicity (time to onset) [17]: 6 days - 2 years | Hepatotoxicity (benign tumour) [18]: 0

INTERFERON ALFA-2B
Hepatotoxicity (chronic liver disease) [1]: 0 | Hepatotoxicity (choleostasis) [2]: 2 | Hepatotoxicity (granulomatous hepatitis) [3]: 3 | Hepatotoxicity (moderate) [4]: 87.5% | Hepatotoxicity (moderate) [5]: 52 | Hepatotoxicity (severe hepatitis) [6]: 7 | Hepatotoxicity (association with vascular disease) [7]: 0 | Hepatotoxicity (acute) [8]: 13 | Hepatotoxicity (successful reintroduction) [9]: yes | Hepatotoxicity (malignant tumour) [10]: 0 | Hepatotoxicity (steatosis) [11]: 0 | Hepatotoxicity (cirrhosis) [12]: 0 | Hepatotoxicity (mechanism) [13]: Dose-dependant | Hepatotoxicity (cytolytic) [14]: 8 | Hepatotoxicity (comment) [15]: AGGRAVATION_CBP/HEPATITE_AUTOIMMUNE/HVB/HVC_CHRONIQUE CHOLANGITE | Hepatotoxicity (acute) [16]: 0% | Hepatotoxicity (time to onset) [17]: 1 week - 1 year | Hepatotoxicity (benign tumour) [18]: 0

Cc1onc(-c2ccccc2)c1C(=O)N[C@@H]1C(=O)N2[C@@H]1SC(C)(C)[C@@H]2C(=O)O [OXACILLIN]
Hepatotoxicity (chronic liver disease) [1]: 0 | Hepatotoxicity (choleostasis) [2]: 4 | Hepatotoxicity (granulomatous hepatitis) [3]: 1 | Hepatotoxicity (moderate) [4]: 81% | Hepatotoxicity (moderate) [5]: 12 | Hepatotoxicity (severe hepatitis) [6]: 0 | Hepatotoxicity (association with vascular disease) [7]: 0 | Hepatotoxicity (acute) [8]: 17 | Hepatotoxicity (successful reintroduction) [9]: yes | Hepatotoxicity (malignant tumour) [10]: 0 | Hepatotoxicity (steatosis) [11]: 1 | Hepatotoxicity (cirrhosis) [12]: 0 | Hepatotoxicity (mechanism) [13]: Allergic, Toxic Metabolite | Hepatotoxicity (cytolytic) [14]: 14 | Hepatotoxicity (comment) [15]: RC/CEFALOTINE/NAFCILLINE | Hepatotoxicity (acute) [16]: 22% | Hepatotoxicity (time to onset) [17]: 2 days - 2.5 months | Hepatotoxicity (benign tumour) [18]: 0

CCCCOCC(CN1C(=O)NC(=O)C(CC)(c2ccccc2)C1=O)OC(N)=O (stereo not drawn) [FEBARBAMATE]
Hepatotoxicity (chronic liver disease) [1]: 0 | Hepatotoxicity (choleostasis) [2]: 1 | Hepatotoxicity (granulomatous hepatitis) [3]: 1 | Hepatotoxicity (moderate) [4]: 0% | Hepatotoxicity (moderate) [5]: 2 | Hepatotoxicity (severe hepatitis) [6]: 5 | Hepatotoxicity (association with vascular disease) [7]: 0 | Hepatotoxicity (acute) [8]: 9 | Hepatotoxicity (successful reintroduction) [9]: yes | Hepatotoxicity (malignant tumour) [10]: 0 | Hepatotoxicity (steatosis) [11]: 1 | Hepatotoxicity (cirrhosis) [12]: 0 | Hepatotoxicity (mechanism) [13]: Allergic | Hepatotoxicity (cytolytic) [14]: 9 | Hepatotoxicity (comment) [15]: AC_ANTI-N/-LM I/PAROXETINE | Hepatotoxicity (acute) [16]: 0% | Hepatotoxicity (time to onset) [17]: 8 days - 15 months | Hepatotoxicity (benign tumour) [18]: 0

Sc1ncnc2nc[nH]c12 [MERCAPTOPURINE ANHYDROUS]
Hepatotoxicity (chronic liver disease) [1]: 0 | Hepatotoxicity (choleostasis) ([2]; Liver): 15 | Hepatotoxicity (granulomatous hepatitis) ([3]; Liver): 0 | Hepatotoxicity (moderate) ([4]; Liver): 53% | Hepatotoxicity (moderate) [5]: 13 | Hepatotoxicity (severe hepatitis) ([6]; Liver): 5 | Hepatotoxicity (association with vascular disease) [7]: 2 | Hepatotoxicity (acute) [8]: 30 | Hepatotoxicity (successful reintroduction) [9]: yes | Hepatotoxicity (malignant tumour) [10]: 3 | Hepatotoxicity (steatosis) [11]: 0 | Hepatotoxicity (cirrhosis) [12]: 0 | Hepatotoxicity (mechanism) ([13]; Liver): Dose-dependant | Hepatotoxicity (cytolytic) ([14]; Liver): 15 | Hepatotoxicity (comment) [15]: I/DOXORUBICINE CHOLANGITE | Hepatotoxicity (acute) ([16]; Liver): 4.9% | Hepatotoxicity (time to onset) [17]: 2 days - 2 years | Hepatotoxicity (benign tumour) [18]: 0

CC1(C)S[C@@H]2[C@H](NC(=O)[C@H](N)c3ccccc3)C(=O)N2[C@H]1C(=O)O [AMPICILLIN]
Hepatotoxicity (chronic liver disease) [1]: 0 | Hepatotoxicity (choleostasis) [2]: 4 | Hepatotoxicity (granulomatous hepatitis) [3]: 0 | Hepatotoxicity (moderate) [4]: 20% | Hepatotoxicity (moderate) [5]: 7 | Hepatotoxicity (severe hepatitis) [6]: 1 | Hepatotoxicity (association with vascular disease) [7]: 0 | Hepatotoxicity (acute) [8]: 9 | Hepatotoxicity (successful reintroduction) [9]: yes | Hepatotoxicity (malignant tumour) [10]: 0 | Hepatotoxicity (steatosis) [11]: 0 | Hepatotoxicity (cirrhosis) [12]: 0 | Hepatotoxicity (mechanism) [13]: Allergic | Hepatotoxicity (cytolytic) [14]: 3 | Hepatotoxicity (comment) [15]: #CBP CHOLECYSTITE_ACALCULEUSE | Hepatotoxicity (acute) [16]: 0% | Hepatotoxicity (time to onset) [17]: 2 days - 2 weeks | Hepatotoxicity (benign tumour) [18]: 0

O=c1[nH]cnc2c1ncn2[C@H]1CC[C@@H](CO)O1 [DIDANOSINE]
Hepatotoxicity (chronic liver disease) [1]: 1 | Hepatotoxicity (choleostasis) [2]: 6 | Hepatotoxicity (granulomatous hepatitis) [3]: 0 | Hepatotoxicity (moderate) [4]: 38.1% | Hepatotoxicity (moderate) [5]: 18 | Hepatotoxicity (severe hepatitis) [6]: 13 | Hepatotoxicity (association with vascular disease) [7]: 0 | Hepatotoxicity (acute) [8]: 27 | Hepatotoxicity (successful reintroduction) [9]: yes | Hepatotoxicity (malignant tumour) [10]: 0 | Hepatotoxicity (steatosis) [11]: 20 | Hepatotoxicity (cirrhosis) [12]: 1 | Hepatotoxicity (mechanism) [13]: Dose-dependant, Mitochondrial toxicity | Hepatotoxicity (cytolytic) [14]: 21 | Hepatotoxicity (comment) [15]: REACTIVATION_HVB/HVC I/PARACETAMOL | Hepatotoxicity (acute) [16]: 12.5% | Hepatotoxicity (time to onset) [17]: 5 days - 8 years | Hepatotoxicity (benign tumour) [18]: 0

CC1=C(/C=C/C(C)=C/C=C/C(C)=C/CO)C(C)(C)CCC1.O=C(O)Cc1cc(I)c(Oc2ccc(O)c(I)c2)c(I)c1
Hepatotoxicity (chronic liver disease) [1]: 1 | Hepatotoxicity (choleostasis) ([2]; Liver): 1 | Hepatotoxicity (granulomatous hepatitis) ([3]; Liver): 0 | Hepatotoxicity (moderate) ([4]; Liver): 0% | Hepatotoxicity (moderate) [5]: 0 | Hepatotoxicity (severe hepatitis) ([6]; Liver): 1 | Hepatotoxicity (association with vascular disease) [7]: 0 | Hepatotoxicity (acute) [8]: 7 | Hepatotoxicity (successful reintroduction) [9]: yes | Hepatotoxicity (malignant tumour) [10]: 0 | Hepatotoxicity (steatosis) [11]: 0 | Hepatotoxicity (cirrhosis) [12]: 1 | Hepatotoxicity (mechanism) ([13]; Liver): Allergic | Hepatotoxicity (cytolytic) ([14]; Liver): 7 | Hepatotoxicity (comment) [15]: AC_ANTI-N | Hepatotoxicity (acute) ([16]; Liver): 0% | Hepatotoxicity (time to onset) [17]: 2 weeks - 9 years | Hepatotoxicity (benign tumour) [18]: 0

CN1C(C(=O)Nc2ccccn2)=C(O)c2ccccc2S1(=O)=O [PIROXICAM]
Hepatotoxicity (chronic liver disease) [1]: 0 | Hepatotoxicity (choleostasis) [2]: 10 | Hepatotoxicity (granulomatous hepatitis) [3]: 1 | Hepatotoxicity (moderate) [4]: 73% | Hepatotoxicity (moderate) [5]: 12 | Hepatotoxicity (severe hepatitis) [6]: 5 | Hepatotoxicity (association with vascular disease) [7]: 0 | Hepatotoxicity (acute) [8]: 19 | Hepatotoxicity (successful reintroduction) [9]: yes | Hepatotoxicity (malignant tumour) [10]: 0 | Hepatotoxicity (steatosis) [11]: 0 | Hepatotoxicity (cirrhosis) [12]: 0 | Hepatotoxicity (mechanism) [13]: Allergic, Toxic | Hepatotoxicity (cytolytic) [14]: 13 | Hepatotoxicity (comment) [15]: AC_ANTI-N CHOLESTASE_PROLONGEE | Hepatotoxicity (acute) [16]: 0.8% | Hepatotoxicity (time to onset) [17]: 3 days - 1 year | Hepatotoxicity (benign tumour) [18]: 0

NC(=O)N1c2ccccc2C=Cc2ccccc21 [CARBAMAZEPINE]
Hepatotoxicity (chronic liver disease) [1]: 4 | Hepatotoxicity (choleostasis) [2]: 41 | Hepatotoxicity (granulomatous hepatitis) [3]: 12 | Hepatotoxicity (moderate) ([4]; Liver): 23.8% | Hepatotoxicity (moderate) [5]: 40 | Hepatotoxicity (severe hepatitis) ([6]; Liver): 10 | Hepatotoxicity (association with vascular disease) [7]: 0 | Hepatotoxicity (acute) [8]: 73 | Hepatotoxicity (successful reintroduction) [9]: yes | Hepatotoxicity (malignant tumour) [10]: 1 | Hepatotoxicity (steatosis) [11]: 2 | Hepatotoxicity (cirrhosis) [12]: 1 | Hepatotoxicity (mechanism) [13]: Allergic, Reactive metabolite | Hepatotoxicity (cytolytic) [14]: 38 | Hepatotoxicity (comment) [15]: AC_ANTI-M/-N/-ML CHOLANGITE DUCTOPENIE #CBP REACTIVATION_HSV6 | Hepatotoxicity (acute) ([16]; Liver): 0.2% | Hepatotoxicity (time to onset) [17]: 1 day - 8 years | Hepatotoxicity (benign tumour) [18]: 0

Source: ChEMBL document CHEMBL3137667, “[Drug-induced liver injury; fourteenth updated edition of the bibliographic database of liver injuries and related drugs]” (Gastroenterol Clin Biol, 2004)
